Laboratory results taken from US20090325202A1, “Methods for Developing and Assessing Therapeutic Agents” (priority 2006, published 2009).

How the values were obtained:
[1] = system: primary human pancreatic cancer xenograft tumors; test: Tumor growth (RTG) in xenograft mouse models of primary human pancreatic cancer; type: in vivo, athymic (nu+/nu+) mice
Description: Four-week-old female athymic (nu+/nu+) mice were purchased from Harlan (Harlan Laboratories, Washington, D.C.). The research protocol was approved by the Johns Hopkins University Animal Care and Use Committee and animals were maintained in accordance to guidelines of the American Association of Laboratory Animal Care. Briefly, frozen pancreatic xenografts in first passage in mice, after being obtained from surgical specimens of patients undergoing pancreatic resection for adenocarcinoma at the Johns Hopkins Hospital were re-implanted subcutaneously in groups of 5 mice for each patient, with 2 small pieces per mouse (F2 generation). Tumors were allowed to grow to a size of 1.5 cm at which point they were harvested, divided into small ˜3×3×3 mm pieces, and transplanted to another 18-22 mice, with two tumors per mouse. Tumors from this second mouse-to-mouse passage were allowed to grow until reaching −200 mm^3, at which time mice were randomized in the following three treatment groups, with 6 mice in each group: control (vehicle), erlotinib (50 mg/kg/day i.p.), and temsirolimus (20 mg/kg days 1-5 i.p.). Mice were monitored daily for signs of toxicity and were weighed three times per week. Tumor size was evaluated three times per week by caliper measurements using the following formula: tumor volume=[length×width^2]/2 as previously reported (19). Relative tumor growth (RTG) was calculated by tumor growth of treated mice divided by tumor growth of control mice (T/C)×100. Experiments were terminated on day 28. Tumor response was defined as sensitive, when RTG was less than 50% on day 28.

S6-RP = test: Ex vivo FNAB drug sensitivity assay, S6-RP phosphorylation by Western blot; type: cell-based, human
Procedure: Tumor cells were collected by FNAB from the xenograft animals before the start of treatment using a sterile 25G short needle. Tumor samples were immediately transferred into 10 ml sterile prewarmed complete RPMI-1640 culture medium containing 10% FBS, penicillin (200 μg/ml), and streptomycin (200 μg/ml). Cells were incubated with 0.04% trypan blue (Sigma) dissolved in PBS (9.1 mM Na2HPO4, 1.7 mM NaH2PO4, and 150 mM NaCl, pH 7.4). The viable (membrane-intact) and dead cells were then counted using Neubauer hemocytometer and the total viable cell count was used to calculate final working volumes. Approximately 25,000 viable tumor cells were seeded into each well of a 6-well polypropylene microplate. Cells were treated in duplicates with vehicle (control), erlotinib (5 μM) or temsirolimus (1 μM) in a humidified 5% CO2 incubator at 37° C. for 6 hours. No fibroblast and endothelial cell growth was observed. Following treatment, non-adherent and adherent cells (only a few, collected by scraping) were pooled together and centrifuged at 500×g for 5 min at 4° C. After washing with PBS, cells were lysed in 100 μL of ice-cold lysis buffer (50 mM Tris-HCl, 0.25M NaCl, 0.1% (v/v) Triton X-100, 1 mM EDTA, 50 mM NaF, and 0.1 mM Na3VO4, pH 7.4) containing protease and phosphatase inhibitors (Roche Molecular Biochemicals) and analyzed by Western blot.
Protein concentrations obtained from FNAB samples were quantified before each experiment. Protein extracts (15 μg) were electrophoresed on a 10% (w/v) SDS-polyacrylamide gel. After electrotransfer to Immobilon-P membranes (Millipore), membranes were blocked at room temperature using SuperBlock (Pierce) for one hour. The primary antibodies were diluted at 1:1000 in 1:10 dilution of SuperBlock solution and the membranes were incubated with primary antibodies overnight at 4° C. The antibodies tested were phospho-ERK1/2 (Cell signal #9101), phospho-S6 Ribosomal Protein (Cell Signaling Technology, Beverly, Mass.) and total ERK1/2 (Cell Signaling Technology, Beverly, Mass.) and total S6 Ribosomal Protein (Cell Signaling Technology, Beverly, Mass.). The next day, the membranes were washed and incubated for 1 h at room temperature with horseradish peroxidase (HRP)-conjugated secondary antibodies, rabbit IgG-HRP (Santa Cruz Biotechnology), or mouse IgG-HRP (Santa Cruz Biotechnology) at a final dilution of 1:3000. […]
To test if tumor cells obtained by FNAB can be used in the ex vivo assays to predict tumor response in vivo, 25,000 viable cancer cells, as determined by trypan blue dye exclusion, were treated with erlotinib or temsirolimus for six hours, after which signal pathway inhibition was analyzed by Western blot. Under these cell culture conditions no fibroblast and endothelial cell growth was detected (data not shown). […]

[2] = system: Panc 265 human pancreas cancer xenograft; test: Panc 265 xenograft tumor growth; type: in vivo, nude mice; details: CCI-779 20 mg/kg days 1-5 i.p.
Description: Tumor tissue was then cut into slices (5×5×0.5−1 mm diameter) and implanted subcutaneously into nude mice. Tumor slices averaging 5×5×0.5−1 mm diameter from the patient, or 3×3×0.5−1 mm dia in serial passage were implanted subcutaneously into both flanks of nude mice. Tumors were removed under sterile conditions/laminar flow and reimplanted subcutaneously in groups of 5 mice. When the tumors on second passage of each group reached 1.5 cm, they were excised and cut into pieces of 3×3×3 mm, and transplanted on another 35-40 mice.
For the in vivo assessment experiments, treatment started when the mean tumor volumes reach approximately 200 mm.
To obtain cancer cells, each animal tumor was sampled as described above. […] At day 7 of therapy, AD/DQ slides were prepared from tumor FNAB samples to retrospectively correlate the results of in vivo and ex vivo chemosentitivty tests from the same xenograft animal.

S6 ribosomal protein = test: Panc 265 xenograft in vivo FNAB smears, S6 ribosomal protein phosphorylation; set-up: species or system human; details: CCI-779 20 mg/kg days 1-5 i.p., FNAB day 7
Procedure: Animals were either untreated or treated with ZD1839: 150 mg/Kg daily or CCI-779: 20 mg/kg days 1-5 by intraperitoneal injection
To obtain cancer cells, each animal tumor was sampled as described above. After collection of tumor FNAB samples, xenograft animals were subsequently treated with ZD1839 or CCI-779 for 28 days and tumor volumes were determined as described above. At day 7 of therapy, AD/DQ slides were prepared from tumor FNAB samples to retrospectively correlate the results of in vivo and ex vivo chemosentitivty tests from the same xenograft animal.
After the treatment cells were collected, protein extracts were prepared and Western blot analysis was performed as described above. The ex vivo effect of ZD 1839 and CCI-779 on phosphorylation of ERK1/2 or S6 ribosomal proteins, respectively, was correlated with the in vivo data gathered from the FNAB smears prepared at day 7 of treatment.

## CO[C@H]1C[C@@H]2CC[C@@H](C)[C@@](O)(O2)C(=O)C(=O)N2CCCC[C@H]2C(=O)O[C@H]([C@H](C)C[C@@H]2CC[C@@H](OC(=O)C(C)(CO)CO)[C@H](OC)C2)CC(=O)[C@H](C)/C=C(\C)[C@@H](O)[C@@H](OC)C(=O)[C@H](C)C[C@H](C)/C=C/C=C/C=C/1C [temsirolimus, Temsirolimus]
[1]; all tumors except A194, temsirolimus 20 mg/kg days 1-5 i.p., day 28
  relative growth (RTG): less than 50%
[1]; tumor A194
  tumor response: resistant (greater than 50% RTG and were defined as resistant)
[1]; tumor A198
  tumor response: sensitive (Tumor response was defined as sensitive, when RTG was less than 50% on day 28)
S6-RP; all tumors of the xenograft panel sensitive to therapy, temsirolimus 1 μM, 6 hours
  S6-RP phosphorylation ex vivo: blocked S6-RP phosphorylation
S6-RP; cancer cells from pancreatic cancer patient 1, six hours
  S6-RP phosphorylation ex vivo: only partially decreased S6-RP phosphorylation
S6-RP; cells from tumor A198, temsirolimus 1 μM, 6 hours
  phosphorylation of S6-RP ex vivo: inhibited phosphorylation of S6-RP
S6-RP; tumor cells of pancreatic cancer patient 2 and 3, six hours
  S6-RP phosphorylation ex vivo: inhibited S6-RP phosphorylation
[2]
  inhibition of tumor growth: 70%
S6 ribosomal protein
  target protein phosphorylation in vivo: strongly inhibited target protein phosphorylation
